Results on 14 molecules are retold here after patent US20230295118A1 (EnhancedBio Inc., priority 2022, published 2023).

What all share (type): cell-based
One experiment has as its target T1, CDK4 (Homo sapiens, UniProt P11802).
T1 construct: endogenous in cells
The experiment is described as follows: CDK4 degradation (DC50, Dmax).

A further experiment has as its system CDK4/6. The experiment is described as follows: CDK4/6 degradation in A375 melanoma cells (FIG. 1). As to conditions: result in words.
For a further experiment, the target named is T2, CDK6 (Homo sapiens, UniProt Q00534).
T2 construct: endogenous in cells
The experiment in a line: CDK6 degradation (DC50, Dmax).

The subject of experiment [1] is mantle cell lymphoma cell (Mino or JeKo-1). The experiment is described as follows: Antiproliferative effect, MTS cell viability assay. As to conditions: 72 h; for IC50: mantle cell lymphoma cell (Mino or JeKo-1), MTS assay, read-out: IC50 (anti-proliferation); for inhibition of cell proliferation of Mino cells: 0-1 μM, result in words. An outline of the steps: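 Mino cells treated with compounds at 0, 0.0001, 0.001, 0.01, 0.1, 1 μM for 72 h; palbociclib and abemaciclib as positive controls. Viability by MTS, formazan absorbance read at 490 nm.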

T2 sequence (Q00534 whole entry): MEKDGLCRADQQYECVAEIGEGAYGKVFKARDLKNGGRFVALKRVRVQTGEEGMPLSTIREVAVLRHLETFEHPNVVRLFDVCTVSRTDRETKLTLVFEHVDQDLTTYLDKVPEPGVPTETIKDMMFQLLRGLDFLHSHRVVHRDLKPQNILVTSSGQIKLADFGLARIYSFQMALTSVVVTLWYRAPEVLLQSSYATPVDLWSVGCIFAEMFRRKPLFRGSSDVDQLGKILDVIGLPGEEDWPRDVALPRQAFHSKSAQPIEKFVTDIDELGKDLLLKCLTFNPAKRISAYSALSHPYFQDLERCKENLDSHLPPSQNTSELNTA
T1 sequence (P11802 whole entry): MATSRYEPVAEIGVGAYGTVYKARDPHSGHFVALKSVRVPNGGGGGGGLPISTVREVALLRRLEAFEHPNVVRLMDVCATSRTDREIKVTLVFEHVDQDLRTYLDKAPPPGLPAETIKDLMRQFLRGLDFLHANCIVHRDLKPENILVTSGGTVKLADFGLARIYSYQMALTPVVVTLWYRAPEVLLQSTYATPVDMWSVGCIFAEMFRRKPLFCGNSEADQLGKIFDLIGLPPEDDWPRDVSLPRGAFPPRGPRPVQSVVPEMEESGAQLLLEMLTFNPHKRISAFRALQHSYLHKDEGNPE

Regarding `Cc1nc2c(F)cc(-c3nc(Nc4ccc(CN5CCN(CCCNc6ccc7c(c6)C(=O)N(C6CCC(=O)NC6=O)C7=O)CC5)cn4)ncc3F)cc2n1C(C)C` (centres unmarked) [Compound 73, 2-(2,6-dioxopiperidin-3-yl)-5-((3-(4-((6-((5-fluoro-4-(4-fluoro-1-isopropyl-2-methyl-1H-benzo[d]imidazol-6-yl)pyrimidin-2-yl)amino)pyridin-3-yl)methyl)piperazin-1-yl)propyl)amino) isoindoline-1,3-dione], on CDK4, the DC50 was < 50 nM and the Dmax is > 80%. The CDK4/6 degradation result in the experiment on CDK4/6 was “dose-dependent CDK4/6 degradation”. At CDK6, the DC50 was < 50 nM and the Dmax was > 80%. Also, in experiment [1], the IC50 was < 50 nM and the “inhibition of cell proliferation of Mino cells” value is “dose-dependent inhibition of cell proliferation”.

For the molecule `CC(=O)c1c(C)c2cnc(Nc3ccc(N4CCN(CCCNc5ccc6c(c5)C(=O)N(C5CCC(=O)NC5=O)C6=O)CC4)cn3)nc2n(C2CCCC2)c1=O` (centres unmarked) [Compound 49, 5-((3-(4-(6-((6-acetyl-8-cyclopentyl-5-methyl-7-oxo-7,8-dihydropyrido[2,3-d]pyrimidin-2-yl)amino)pyridin-3-yl)piperazin-1-yl)propyl)amino)-2-(2,6-dioxopiperidin-3-yl) isoindoline-1,3-dione], on CDK4, the DC50 was < 50 nM and the maximal degradation (Dmax) is > 80%. The CDK4/6 degradation result with CDK4/6 is “dose-dependent CDK4/6 degradation”. Moreover, at CDK6, the DC50 was < 50 nM and the Dmax is > 80%. Besides, in experiment [1], the IC50 was < 50 nM and the “inhibition of cell proliferation of Mino cells” value is on record as “dose-dependent inhibition of cell proliferation”.

Regarding `Cc1nc2c(F)cc(-c3nc(Nc4ccc(CN5CCN(C6CCN(c7ccc(NC8CCC(=O)NC8=O)cc7)CC6)CC5)cn4)ncc3F)cc2n1C(C)C` (centres unmarked) [Compound 168, 3-((4-(4-(4-((6-((5-fluoro-4-(4-fluoro-1-isopropyl-2-methyl-1H-benzo[d]imidazol-6-yl)pyrimidin-2-yl)amino)pyridin-3-yl)methyl)piperazin-1-yl)piperidin-1-yl)phenyl)amino) piperidine-2,6-dione], the DC50 is 50 to 200 nM at CDK4 and < 50 nM at CDK6. Besides, the Dmax at CDK4 and on CDK6 was > 80% throughout. In experiment [1], the IC50 was < 50 nM.

As to `CC(=O)c1c(C)c2cnc(Nc3ccc(N4CCN(C5CCN(C(=O)N6CCC(c7ccc8c(c7)CN(C7CCC(=O)NC7=O)C8=O)CC6)CC5)CC4)cn3)nc2n(C2CCCC2)c1=O` (centres unmarked) [Compound 38, 3-(5-(1-(4-(4-(6-((6-acetyl-8-cyclopentyl-5-methyl-7-oxo-7,8-dihydropyrido[2,3-d]pyrimidin-2-yl)amino)pyridin-3-yl)piperazin-1-yl)piperidine-1-carbonyl)piperidin-4-yl)-1-oxoisoindolin-2-yl)piperidine-2,6-dione], at CDK4, the DC50 was > 200 nM and the Dmax was > 50%. Further, at CDK6, the DC50 is > 200 nM and the Dmax is > 50%. For the same molecule, the IC50 in experiment [1] is > 200 nM.

Regarding `Cc1nc2c(F)cc(-c3nc(Nc4ccc(CN5CCN(C(=O)C6CN(c7ccc(NC8CCC(=O)NC8=O)cc7)C6)CC5)cn4)ncc3F)cc2n1C(C)C` (centres unmarked) [Compound 138, 3-((4-(3-(4-((6-((5-fluoro-4-(4-fluoro-1-isopropyl-2-methyl-1H-benzo[d]imidazol-6-yl)pyrimidin-2-yl)amino)pyridin-3-yl)methyl)piperazine-1-carbonyl)azetidin-1-yl)phenyl)amino) piperidine-2,6-dione], the DC50 at CDK4 and on CDK6 was 50 to 200 nM throughout. In addition, the Dmax at CDK4 and at CDK6 was > 60% throughout. Further, the IC50 in experiment [1] was 50 to 200 nM.

With `Cc1nc2c(F)cc(-c3nc(Nc4ccc(CC5CCN(C(=O)C6CCN(c7ccc8c(c7)C(=O)N(C7CCC(=O)NC7=O)C8=O)CC6)CC5)cn4)ncc3F)cc2n1C(C)C` (centres unmarked) [Compound 161, 2-(2,6-dioxopiperidin-3-yl)-5-(4-(4-((6-((5-fluoro-4-(4-fluoro-1-isopropyl-2-methyl-1H-benzo[d]imidazol-6-yl)pyrimidin-2-yl)amino)pyridin-3-yl)methyl)piperidine-1-carbonyl)piperidin-1-yl)isoindoline-1,3-dione], the DC50 was 50 to 200 nM on CDK4 and > 200 nM at CDK6. Also, the Dmax at CDK4 and on CDK6 was > 60% in each case. Besides, the IC50 in experiment [1] is 50 to 200 nM.

As to `CC(=O)c1c(C)c2cnc(Nc3ccc(N4CCN(C5CCN(c6ccc7c(c6)CN(C6CCC(=O)NC6=O)C7=O)CC5)CC4)cn3)nc2n(C2CCCC2)c1=O` (centres unmarked) [Compound 64, 3-(5-(4-(4-(6-((6-acetyl-8-cyclopentyl-5-methyl-7-oxo-7,8-dihydropyrido[2,3-d]pyrimidin-2-yl)amino)pyridin-3-yl)piperazin-1-yl)piperidin-1-yl)-1-oxoisoindolin-2-yl)piperidine-2,6-dione], on CDK4, the DC50 fell in the range of 50 to 200 nM and the Dmax is > 80%. At CDK6, the DC50 fell in the range of 50 to 200 nM and the Dmax was > 80%. In experiment [1], the IC50 was < 50 nM.

Regarding `Cc1nc2c(F)cc(-c3nc(Nc4ccc(CN5CCN(CC6CN(c7ccc(NC8CCC(=O)NC8=O)cc7)C6)CC5)cn4)ncc3F)cc2n1C(C)C` (centres unmarked) [Compound 134], at CDK4, the DC50 is < 50 nM and the Dmax is > 80%. At CDK6, the DC50 was < 50 nM and the Dmax is > 80%. Besides, the IC50 in experiment [1] was < 50 nM.

As to `CC(=O)c1c(C)c2cnc(Nc3ccc(N4CCN(CCC5CCN(c6ccc7c(c6)C(=O)N(C6CCC(=O)NC6=O)C7=O)CC5)CC4)cn3)nc2n(C2CCCC2)c1=O` (centres unmarked) [Compound 69, 5-(4-(2-(4-(6-((6-acetyl-8-cyclopentyl-5-methyl-7-oxo-7,8-dihydropyrido[2,3-d]pyrimidin-2-yl)amino)pyridin-3-yl)piperazin-1-yl)ethyl)piperidin-1-yl)-2-(2,6-dioxopiperidin-3-yl)isoindoline-1,3-dione], at CDK4, the DC50 lay within 50 to 200 nM and the Dmax is > 60%. Further, on CDK6, the DC50 lay in the range of 50 to 200 nM and the Dmax is > 60%. For the same molecule, the IC50 in experiment [1] lay within 50 to 200 nM.

Regarding `Cc1nc2c(F)cc(-c3nc(Nc4ccc(CC5CCN(CC6CCN(c7ccc8c(c7)C(=O)N(C7CCC(=O)NC7=O)C8=O)CC6)CC5)cn4)ncc3F)cc2n1C(C)C` (centres unmarked) [Compound 157, 2-(2,6-dioxopiperidin-3-yl)-5-(4-((4-((6-((5-fluoro-4-(4-fluoro-1-isopropyl-2-methyl-1H-benzo[d]imidazol-6-yl)pyrimidin-2-yl)amino)pyridin-3-yl)methyl)piperidin-1-yl)methyl)piperidin-1-yl)isoindoline-1,3-dione], the DC50 on CDK4 and on CDK6 was < 50 nM in each case. For the same molecule, the Dmax on CDK4 and on CDK6 was > 80% each time. For the same molecule, the IC50 in experiment [1] was < 50 nM.

Regarding `Cc1nc2c(F)cc(-c3nc(Nc4ccc(CC5CCN(C6CCN(c7ccc8c(c7)C(=O)N(C7CCC(=O)NC7=O)C8=O)CC6)CC5)cn4)ncc3F)cc2n1C(C)C` (centres unmarked) [Compound 169, 2-(2,6-dioxopiperidin-3-yl)-5-(4-((6-((5-fluoro-4-(4-fluoro-1-isopropyl-2-methyl-1H-benzo[d]imidazol-6-yl)pyrimidin-2-yl)amino)pyridin-3-yl)methyl)-[1,4′-bipiperidin]-1′-yl)isoindoline-1,3-dione], the DC50 on CDK4 and on CDK6 was 50 to 200 nM throughout. The Dmax at CDK4 and on CDK6 was > 80% in each case. Further, the IC50 in experiment [1] was < 50 nM.

On to `Cc1nc2c(F)cc(-c3nc(Nc4ccc(CC5CCN(CC6CN(c7ccc8c(c7)C(=O)N(C7CCC(=O)NC7=O)C8=O)C6)CC5)cn4)ncc3F)cc2n1C(C)C` (centres unmarked) [Compound 139, 2-(2,6-dioxopiperidin-3-yl)-5-(3-((4-((6-((5-fluoro-4-(4-fluoro-1-isopropyl-2-methyl-1H-benzo[d]imidazol-6-yl)pyrimidin-2-yl)amino)pyridin-3-yl)methyl)piperidin-1-yl)methyl)azetidin-1-yl)isoindoline-1,3-dione], for which, at CDK4, the DC50 was < 50 nM and the Dmax was > 80%. Moreover, on CDK6, the DC50 is < 50 nM and the greatest degradation seen (Dmax) was > 80%. Moreover, the IC50 in experiment [1] was < 50 nM.

On to `CC(=O)c1c(C)c2cnc(Nc3ccc(N4CCN(C(=O)N5CCN(CCN6CCN(c7ccc8c(c7)C(=O)N(C7CCC(=O)NC7=O)C8=O)CC6)CC5)CC4)cn3)nc2n(C2CCCC2)c1=O` (centres unmarked) [Compound 21, 5-(4-(2-(4-(4-(6-((6-acetyl-8-cyclopentyl-5-methyl-7-oxo-7,8-dihydropyrido[2,3-d]pyrimidin-2-yl)amino)pyridin-3-yl)piperazine-1-carbonyl)piperazin-1-yl)ethyl)piperazin-1-yl)-2-(2,6-dioxopiperidin-3-yl)isoindoline-1,3-dione], for which, on CDK4, the DC50 is 50 to 200 nM and the Dmax was > 60%. On CDK6, the DC50 fell in the range of 50 to 200 nM and the Dmax is > 60%. For the same molecule, the IC50 in experiment [1] lay within 50 to 200 nM.

`Cc1nc2c(F)cc(-c3nc(Nc4ccc(CN5CCN(C6CN(c7ccc8c(c7)C(=O)N(C7CCC(=O)NC7=O)C8=O)C6)CC5)cn4)ncc3F)cc2n1C(C)C` (centres unmarked) [Compound 147, 2-(2,6-dioxopiperidin-3-yl)-5-(3-(4-((6-((5-fluoro-4-(4-fluoro-1-isopropyl-2-methyl-1H-benzo[d]imidazol-6-yl)pyrimidin-2-yl)amino)pyridin-3-yl)methyl)piperazin-1-yl)azetidin-1-yl)isoindoline-1,3-dione]: at CDK4, the DC50 is < 50 nM and the Dmax is > 60%. At CDK6, the DC50 is 50 to 200 nM and the Dmax was > 60%. Moreover, in experiment [1], the IC50 lay within 50 to 200 nM.
